Values of other authors, collected in patent US11472782B2, “RIP1 inhibitory compounds and methods for making and using the same” (priority 2018, dated 2022).

Tested on: TNF-alpha induced hypothermia
Conditions: mouse, dose of 30 mg/kg, according to WO 2014/125444

CN1C(=O)[C@@H](NC(=O)c2nnc(Cc3ccccc3)[nH]2)COc2ccccc21 [comparative compound, (S)-5-benzyl-N-(5-methyl-4-oxo-2,3,4,5-tetrahydrobenzo[b][1,4]oxazepin-3-yl)-4H-1,2,4-triazole-3-carboxamide]
inhibition of TNF-alpha induced hypothermia: 93%
